The values that follow come from US10174401B2, “Methods for binding and precipitating gold using microbial-derived metallophores and their uses” (McMaster University, priority 2013, dated 2019).

Molecules are shown by their SMILES. *1 amine or outer side, *2 acyl side, *3 side chain or, on linkers, in order; H or OH if unused. Where a SMILES comes first, the peptide text is derived from it. [ ]: non-standard residue; d: D form. The star is where a group is joined. ξ: configuration not given here. NH(1-OH-2-oxopiperidin-3-yl) = O=C1C(N*)CCCN1O; ξOrn(N(OH)Ac) = CC(=O)N(O)CCCC(N)C(=O)O; ξAsp(βξ-Me) = CC(C(=O)O)C(N)C(=O)O; X2 = C/C=C(/N[*:1])C(=O)[*:2]; X1 = CC(N)C(O)C(C)C(=O)*

One data set relates to D. acidovorans. Nature of the data set: Growth of D. acidovorans in presence of gold precipitate or AuCl3 (MIC). The format is cell-based, Delftia acidovorans. On the procedure: The assay was set up as follows: 50 μL of ddH2O containing 3.2, 1.6, 1.4, 1.2, 1.0, 0.8, 0.6, 0.4, and 0.2 mM delftibactin A was added in quadruplicate to wells within a 96-well plate. A 1.6 mM stock solution of AuCl3 was made and 50 μL was added to each well containing delftibactin A. No-delftibactin A and no-AuCl3 controls containing only water were also added to the 96-well plate in quadruplicate. This was incubated for 30 min at room temperature, during which time 10 mL of an overnight culture of D. acidovorans, grown in ACM was centrifuged and resuspended in 5 mL sterilized ddH2O. After 30 min incubation of AuCl3 with delftibactin, 100 μL of concentrated culture was added to each well. Final concentration of AuCl3 was 400 μM and the final concentrations of delftibactin A were 800, 400, 350, 300, 250, 200, 150, 100, and 50 μM. After 30 minutes of incubation at room temperature, mixtures were serial diluted and plated onto Nutrient Agar plates and incubated at 30° C. Colonies were counted after 24 h of growth. Results are shown as mean±s.d.; n=4. To assess whether D. acidovorans could grow in the presence of the gold precipitate, several milligrams of delftibactin A and AuCl3 were reacted 1:1 overnight and centrifuged, and washed once with water to concentrate the precipitate. The precipitate was resuspended in ddH2O at a final concentration of 100 mM, calculated using a molecular weight of 1227 g/mol, corresponding to a gold-delftibactin A species. D. acidovorans was grown overnight in a 96-well plate in 100 μL of ACM containing 20 μM to 10 mM gold precipitate or AuCl3. […] The MIC of AuCl3 was determined to be roughly 10 μM.

Data set [1] relates to D. acidovorans ΔdelG. The data set is described as follows: Delftibactin-mediated protection against gold toxicity (CFU after acute exposure). The format is cell-based, Delftia acidovorans. The settings on record: ΔdelG vs wild-type, 100 μM AuCl3, 30 min exposure, CFUs. On the procedure:
Cultures of D. acidovorans wild type and D. acidovorans ΔdelG were grown in deferrated ACM for 2 days at 30° C. In 96-well plates, 200 μL of wild type or mutant grown culture were incubated in the presence and absence of 100 μM AuCl3. At the same time, the mutant culture was also complemented with […] delftibactin (biological levels) in the presence of 100 μM AuCl3. After 30 minutes, cultures were serially diluted in water and plated on LB agar to determine the colony forming units of D. acidovorans after gold exposure. Results are shown as mean s.d.; n=4; Two-tailed student's t-test.

Data set [2] in a line: Gold-siderophore reactions (gold nanoparticle formation, gold-iron competition, LC-MS of supernatant). The settings on record: for gold nanoparticle formation (visual inspection): 10 mM AuCl3 reacted with equimolar chelator. On the procedure:
Ten microliters of the AuCl3 stock solution was aliquoted into separate 200 μL microcentrifuge tubes, followed by the addition of 10 μL of each respective siderophore or metal chelator, where water was used as a control. The reaction was monitored over time and images were taken. After 2 h, a sample of the mixture was diluted 10× and analyzed by transmission electron microscopy (TEM) (see below). The remaining sample was centrifuged at 13,000 rpm for ten minutes. A 10 μL sample of the supernatant was diluted in 90 μL of water and subsequently analyzed by LC-MS. A control of unreacted siderophore and metal chelator of the same concentration was also analyzed for comparison. […] Reactions were monitored similarly. UV-vis spectrums were obtained using a Synergy 4 microplate reader (Biotek).

A short description of data set [3]: Exposure of acidobactin A to gold. The settings on record: when exposed to gold.
Data set [4] relates to D. acidovorans ΔdelG. Nature of the data set: Gold protective comparison of delftibactin A and B (growth curves). The format is cell-based, Delftia acidovorans. The note with it: 125 μM AuCl3 + 125 μM delftibactin. The protocol: Twenty microliter reactions were set up as follows: water only, 5 mM AuCl3, 5 mM AuCl3+delftibactin A, and 5 mM AuCl3+delftibactin B. Reactions were initiated with the addition of delftibactin A or B. After 2 h, reactions were serially diluted to 125 μM in ACM containing D. acidovorans ΔdelG diluted 1:1000 from an overnight culture. Optical density was monitored using a TECAN Sunrise™ microplate reader at 600 nm for 36 h. Results are a mean of three growth curves for each condition from a single representative experiment.

Data set [5] can be described thus: Time course of AuCl3 precipitation by delftibactins in absence and presence of FeCl3. The settings on record: 5 mM AuCl3, compared with delftibactin A. On the procedure: Twenty microliter reactions were set up as follows: i) water only, ii) 5 mM delftibactin A, iii) 5 mM AuCl3 iv) 5 mM FeCl3 v) 5 mM AuCl3+5 mM FeCl3 vi) 5 mM delftibactin B+5 mM AuCl3 vii) delftibactin B+5 mM AuCl3+5 mM FeCl3 viii) delftibactin B+5 mM FeCl3. Reactions were initiated by the addition of delftibactin and images were taken at time points indicated. After 2 h, reactions were serially diluted to 30 μM final concentration in ACM containing D. acidovorans ΔdelG diluted 1:1000 from an overnight culture. Optical density was monitored using a TECAN Sunrise™ microplate reader at 600 nm for 36 h. Results are a mean of three growth curves for each condition from a single representative experiment. As a second test of delftibactin protective capacity, D. acidovorans ΔdelG cells from an overnight culture were inoculated 1:1000 into 100 μL ACM in a 96-well plate containing 0 or 10 μM AuCl3, and then provided 0 or 100 μM delftibactin. Cultures were grown for 84 h at 250 rpm at 30° C. in a TECAN Sunrise™ microplate reader, measuring at 600 nm to assess growth. Results are a mean of three growth curves for each condition from a single representative experiment.

Data set [6] is described as follows: TEM imaging of siderophore-gold reactions. The note with it: after 2 h reaction with AuCl3. On the procedure:
Transmission electron microscopy imaging was performed with a JEOL JEM 1299 EX TEMSCAN transmission electron microscope (JEOL, Peabody, Mass., USA) operated at an accelerating voltage of 80 kV. Sample preparation: a 2 μL drop of a diluted (10×) siderophore-gold reaction was deposited over a formvar-coated TEM grid, and was allowed to dry under ambient conditions before being imaged. Gold nanoparticle size distribution was determined using the software, ImageJ.

In the case of `[Cl][Au]([Cl])[Cl]` [AuCl3], the “concentration at which toxic” value in the data set with D. acidovorans (D. acidovorans) came out at 10 µM. Besides, in the data set with D. acidovorans (D. acidovorans grown overnight in ACM, 96-well plate), the “MIC of AuCl3” value is recorded as “roughly 10 μM”. The “growth of D. acidovorans” value in the data set on D. acidovorans (overnight in ACM containing 20 μM to 10 mM gold precipitate or AuCl3) is “No growth”. Besides, the “increase in sensitivity to gold toxicity in the ΔdelG strain” value with D. acidovorans ΔdelG [1] was 102.8 fold.
With `O=C(O)CN(CCN(CC(=O)O)CC(=O)O)CC(=O)O` [EDTA, ethylenediaminetetraacetic acid], in data set [2], the “gold nanoparticle formation (visual inspection)” value (from here on “gold nanoparticle formation”) is “fail to develop a similar effect even after prolonged exposure to gold ions”.
For the compound `CC1CC(=O)NC(CCCN(O)C=O)C(O)CC(=O)NC(C(C)O)C(=O)NC(CCCNO)C(=O)NC(CO)C(=O)NC(C(O)C(=O)O)C(=O)O1` (stereo not shown) [acidobactin A], the gold complexing result in data set [3] is given as “shown the gold complexing phenomenon”.
`CC(=O)N(O)CCCC[C@H](NC(=O)CC(O)(CC(=O)N[C@@H](CCCCN(O)C(C)=O)C(=O)O)C(=O)O)C(=O)O` [aerobactin]: in data set [2], the “gold nanoparticle formation” value is listed as “fail to produce defined gold nanoparticles”.
In the case of `c1ccc(-c2ccccn2)nc1` [bipyridyl], in data set [2], the “gold nanoparticle formation” value is “fail to develop a similar effect even after prolonged exposure to gold ions”.
On to `C/C=C(/NC(=O)CNC(=O)C(C)NC(=O)C(NC(=O)C(C)C(O)C(C)N)C(C)C(=O)O)C(=O)NC(CCCN(O)C(C)=O)C(=O)NC(C)C(=O)NC(CCCNC(=N)N)C(=O)NC1CCCN(O)C1=O` (stereo not drawn) [delftibactin B] (X1-[ξAsp(βξ-Me)]AG[X2][ξOrn(N(OH)Ac)]AR-{NH(1-OH-2-oxopiperidin-3-yl)}; configuration not given here), for which, in data set [2], the “gold nanoparticle formation” value was “rapidly undergo a characteristic blackening”. Also, the “detoxification / protection against AuCl3 toxicity” value in the data set with D. acidovorans ΔdelG [4] is given as “decreased detoxification”. Further, the gold reduction efficiency result in data set [5] was “less efficient in gold reduction”.
With `O=C(N[C@H]1COC(=O)[C@@H](NC(=O)c2cccc(O)c2O)COC(=O)[C@@H](NC(=O)c2cccc(O)c2O)COC1=O)c1cccc(O)c1O` [enterobactin], the “gold nanoparticle formation” value in data set [2] was “considerable gold nanoparticle formation”. In data set [2] (LC-MS, 2 hr exposure, vs unreacted control), the “concentration of metallophore after AuCl3 exposure” value is reported as “remained unchanged”. For the same compound, the “reaction with gold after pre-exposure to / in presence of iron” value in data set [2] (equimolar FeCl3) is given as “reacts with gold to a similar extent as when iron is not present”.
As for `CC(C)(C1=N[C@@](C)(C(=O)O)CS1)[C@H](O)[C@@H]1CSC([C@H]2CSC(c3ccccc3O)=N2)N1` (stereo partly shown) [yersiniabactin, reference compound], in data set [2], the “gold nanoparticle formation” value was “does not generate substantial quantities of gold nanoparticles”. Besides, the “nanoparticles seen by TEM” value in data set [6] is recorded as “did not create any distinct nanoparticles”.
